Assay results reported in patent US12662491B2 (Redona Therapeutics, Inc., priority 2020, dated 2026).

molecular target: T1, Zcchc11 enzyme (Homo sapiens, UniProt Q5TAX3); experiment: TUTase assay (Zcchc11 assay, Lin28a-dependent polyuridylation of pre-let-7); assay type: biochemical; conditions: Lin28a-dependent Zcchc11 (Z11) TUTase assay; read-out: Potency Lin28a-dep Z11 IC50
T1 construct: made in house; host or cells: HEK293 cells (Zcchc11); E. coli Rosetta II (LIN28A)
T1 sequence (Q5TAX3 212-1420): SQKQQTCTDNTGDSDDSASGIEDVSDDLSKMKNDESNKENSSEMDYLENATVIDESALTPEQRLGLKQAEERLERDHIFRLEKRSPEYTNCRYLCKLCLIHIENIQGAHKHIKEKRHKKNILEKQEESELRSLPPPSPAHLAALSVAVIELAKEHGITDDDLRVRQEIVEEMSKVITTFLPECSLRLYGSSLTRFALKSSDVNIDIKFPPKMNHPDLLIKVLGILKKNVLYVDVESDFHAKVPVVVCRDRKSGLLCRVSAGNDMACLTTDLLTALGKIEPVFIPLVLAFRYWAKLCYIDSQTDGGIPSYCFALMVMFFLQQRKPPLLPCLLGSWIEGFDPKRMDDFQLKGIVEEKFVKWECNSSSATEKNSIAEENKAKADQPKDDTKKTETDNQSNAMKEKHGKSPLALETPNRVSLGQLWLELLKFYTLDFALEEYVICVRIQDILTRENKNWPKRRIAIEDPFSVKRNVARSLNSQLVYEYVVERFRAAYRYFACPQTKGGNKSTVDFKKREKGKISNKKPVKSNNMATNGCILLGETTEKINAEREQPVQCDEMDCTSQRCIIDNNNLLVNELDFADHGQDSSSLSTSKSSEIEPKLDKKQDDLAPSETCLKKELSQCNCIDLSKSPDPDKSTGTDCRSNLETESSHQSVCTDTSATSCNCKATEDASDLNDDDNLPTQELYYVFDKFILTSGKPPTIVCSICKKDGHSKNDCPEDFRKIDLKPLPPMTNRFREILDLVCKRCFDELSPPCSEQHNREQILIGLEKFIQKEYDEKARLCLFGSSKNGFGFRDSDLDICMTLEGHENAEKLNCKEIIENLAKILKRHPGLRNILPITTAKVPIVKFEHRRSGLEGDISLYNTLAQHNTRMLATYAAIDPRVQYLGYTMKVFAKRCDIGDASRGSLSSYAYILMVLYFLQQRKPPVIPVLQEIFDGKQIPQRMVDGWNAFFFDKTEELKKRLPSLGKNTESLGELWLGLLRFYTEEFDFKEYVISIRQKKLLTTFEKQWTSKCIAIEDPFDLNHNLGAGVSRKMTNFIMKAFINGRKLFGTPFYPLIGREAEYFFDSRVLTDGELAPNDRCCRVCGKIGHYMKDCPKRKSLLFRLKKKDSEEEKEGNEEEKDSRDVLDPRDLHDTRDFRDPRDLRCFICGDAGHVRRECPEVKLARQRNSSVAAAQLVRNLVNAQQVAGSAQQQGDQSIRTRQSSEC
Method in brief: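 LIN28A (10 nM) in pH 7.3 HEPES/KCl/MgCl2/DTT buffer was mixed with serially diluted compound, then 0.2 nM truncated human Zcchc11 and 2 nM labeled pre-let-7 were added for 30 min at room temperature. UTP (5 uM) and quench probe (4 nM) then started the reaction. Linear early rates gave IC50 values.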

IC50, ≤ 1 µM:
COc1ccc(Cl)c(OC[C@H]2C[C@H](NC(C)=O)CN2c2cc3c(cc2Cl)c(=O)c(C(=O)O)cn3-c2ccc(N3CC(N(C)C)C3)nc2)n1 [Example 637, 6-chloro-7-[(2R)-2-{[(3-chloro-6-methoxypyridin-2-yl)oxy]methyl}-4-acetamido-pyrrolidin-1-yl]-1-{6-[3-(dimethylamino)azetidin-1-yl]pyridin-3-yl}-4-oxo-1,4-dihydroquinoline-3-carboxylic acid]
O=C(O)c1cn(-c2cnccn2)c2cc(N3CC(F)(F)C[C@@H]3COc3ncccc3Cl)c(Cl)cc2c1=O [Example 638, (R)-6-chloro-7-(2-(((3-chloropyridin-2-yl)oxy)methyl)-4,4-difluoropyrrolidin-1-yl)-4-oxo-1-(pyrazin-2-yl)-1,4-dihydroquinoline-3-carboxylic acid]
CN(C)C1CN(c2ccc(-n3cc(C(=O)O)c(=O)c4cc(Cl)c(N5CCC[C@@]5(C)COc5ncccc5Cl)cc43)cn2)C1 [Example 639, (S)-6-chloro-7-(2-(((3-chloropyridin-2-yl)oxy)methyl)-2-methylpyrrolidin-1-yl)-1-(6-(3-(dimethylamino)azetidin-1-yl)pyridin-3-yl)-4-oxo-1,4-dihydroquinoline-3-carboxylic acid]
COc1ccc(Cl)c(OC[C@H]2C[C@@H](O)CN2c2cc3c(cc2Cl)c(=O)c(C(=O)O)cn3-c2ccc(N3CC(N(C)C)C3)nc2)n1 [Example 641, 6-chloro-7-((2R,4R)-2-(((3-chloro-6-methoxypyridin-2-yl)oxy)methyl)-4-hydroxypyrrolidin-1-yl)-1-(6-(3-(dimethylamino)azetidin-1-yl)pyridin-3-yl)-4-oxo-1,4-dihydroquinoline-3-carboxylic acid]
COc1ccc(Cl)c(OC[C@H]2CC(N3CCCC3=O)CN2c2cc3c(cc2Cl)c(=O)c(C(=O)O)cn3-c2ccc(N3CC(N(C)C)C3)nc2)n1 (stereo partly drawn) [Example 642, 6-chloro-7-((5′R)-5′-(((3-chloro-6-methoxypyridin-2-yl)oxy)methyl)-2-oxo-[1,3′-bipyrrolidin]-1-yl)-1-(6-(3-(dimethylamino)azetidin-1-yl)pyridin-3-yl)-4-oxo-1,4-dihydroquinoline-3-carboxylic acid]
COc1ccc(Cl)c(OC[C@H]2CC(C)(O)CN2c2cc3c(cc2Cl)c(=O)c(C(=O)O)cn3-c2ccc(N3CC(N(C)C)C3)nc2)n1 (stereo partly drawn) [Example 643, 6-chloro-7-((2R)-2-(((3-chloro-6-methoxypyridin-2-yl)oxy)methyl)-4-hydroxy-4-methylpyrrolidin-1-yl)-1-(6-(3-(dimethylamino)azetidin-1-yl)pyridin-3-yl)-4-oxo-1,4-dihydroquinoline-3-carboxylic acid]
COc1ccc(Cl)c(OC[C@H]2CCCN2c2cc3c(cc2Cl)c(=O)c(C(=O)O)cn3-c2ccnc(N)c2)n1 [Example 644, (R)-1-(2-aminopyridin-4-yl)-6-chloro-7-(2-(((3-chloro-6-methoxypyridin-2-yl)oxy)methyl)pyrrolidin-1-yl)-4-oxo-1,4-dihydroquinoline-3-carboxylic acid]
CN(C)C1CN(c2ccc(-n3cc(C(=O)O)c(=O)c4cc(Cl)c(N5CCC[C@@H]5COc5nc6c(ccn6C)cc5Cl)cc43)cn2)C1 [Example 645, (R)-6-chloro-7-(2-(((5-chloro-1-methyl-1H-pyrrolo[2,3-b]pyridin-6-yl)oxy)methyl)pyrrolidin-1-yl)-1-(6-(3-(dimethylamino)azetidin-1-yl)pyridin-3-yl)-4-oxo-1,4-dihydroquinoline-3-carboxylic acid]
COc1ccc(Cl)c(OC[C@H]2CCCN2c2cc3c(cc2F)c(=O)c(C(=O)O)cn3-c2cnnc(N)c2)n1 [Example 646, (R)-1-(6-aminopyridazin-4-yl)-7-(2-(((3-chloro-6-methoxypyridin-2-yl)oxy)methyl)pyrrolidin-1-yl)-6-fluoro-4-oxo-1,4-dihydroquinoline-3-carboxylic acid]
Nc1ccc(-n2cc(C(=O)O)c(=O)c3cc(Cl)c(N4CCC[C@@H]4COc4nc(OC5CC5)ccc4Cl)cc32)cn1 [Example 647, (R)-1-(6-aminopyridin-3-yl)-6-chloro-7-(2-(((3-chloro-6-cyclopropoxy-pyridin-2-yl)oxy)methyl)pyrrolidin-1-yl)-4-oxo-1,4-dihydroquinoline-3-carboxylic acid]
COc1ccc(Cl)c(OC[C@H]2CC(C)(C)CN2c2cc3c(cc2Cl)c(=O)c(C(=O)O)cn3-c2ccc(N3CC(N(C)C)C3)nc2)n1 [Example 648, (R)-6-chloro-7-(2-(((3-chloro-6-methoxypyridin-2-yl)oxy)methyl)-4,4-dimethylpyrrolidin-1-yl)-1-(6-(3-(dimethylamino)azetidin-1-yl)pyridin-3-yl)-4-oxo-1,4-dihydroquinoline-3-carboxylic acid]
COc1ccc(Cl)c(OC[C@H]2CC(C)(C)CN2c2cc3c(cc2Cl)c(=O)c(C(=O)O)cn3-c2ccc(N)nc2)n1 [Example 649, (R)-1-(6-aminopyridin-3-yl)-6-chloro-7-(2-(((3-chloro-6-methoxypyridin-2-yl)oxy)methyl)-4,4-dimethylpyrrolidin-1-yl)-4-oxo-1,4-dihydroquinoline-3-carboxylic acid]
COc1ccc(Cl)c(OC[C@H]2CC(C)(C)CN2c2cc3c(cc2Cl)c(=O)c(C(=O)O)cn3-c2ccnc(N)c2)n1 [Example 650, (R)-1-(2-aminopyridin-4-yl)-6-chloro-7-(2-(((3-chloro-6-methoxypyridin-2-yl)oxy)methyl)-4,4-dimethylpyrrolidin-1-yl)-4-oxo-1,4-dihydroquinoline-3-carboxylic acid]
COc1cnc(OC[C@H]2CC3CC3N2c2cc3c(cc2Cl)c(=O)c(C(=O)O)cn3-c2ccc(N)nc2)c(Cl)c1 (stereo partly drawn) [Example 651, 1-(6-aminopyridin-3-yl)-6-chloro-7-((3R)-3-(((3-chloro-5-methoxypyridin-2-yl)oxy)methyl)-2-azabicyclo[3.1.0]hexan-2-yl)-4-oxo-1,4-dihydroquinoline-3-carboxylic acid]
CN(C)C1CN(c2ccc(-n3cc(C(=O)O)c(=O)c4cc(Cl)c(N5CCC[C@@H]5COc5nc6nc[nH]c6cc5Cl)cc43)cn2)C1 [Example 652, (R)-6-chloro-7-(2-(((6-chloro-3H-imidazo[4,5-b]pyridin-5-yl)oxy)methyl)pyrrolidin-1-yl)-1-(6-(3-(dimethylamino)azetidin-1-yl)pyridin-3-yl)-4-oxo-1,4-dihydroquinoline-3-carboxylic acid]
COc1cnc(OC[C@H]2CC3CC3N2c2cc3c(cc2Cl)c(=O)c(C(=O)O)cn3-c2ccnc(N)c2)c(Cl)c1 (stereo partly drawn) [Example 653, 1-(2-aminopyridin-4-yl)-6-chloro-7-((3R)-3-(((3-chloro-5-methoxypyridin-2-yl)oxy)methyl)-2-azabicyclo[3.1.0]hexan-2-yl)-4-oxo-1,4-dihydroquinoline-3-carboxylic acid]
COc1ccc(Cl)c(OC[C@H]2CC3CC3N2c2cc3c(cc2Cl)c(=O)c(C(=O)O)cn3-c2ccc(N3CC(N(C)C)C3)nc2)n1 (stereo partly drawn) [Example 654, 6-chloro-7-((3R)-3-(((3-chloro-6-methoxypyridin-2-yl)oxy)methyl)-2-azabicyclo[3.1.0]hexan-2-yl)-1-(6-(3-(dimethylamino)azetidin-1-yl)pyridin-3-yl)-4-oxo-1,4-dihydroquinoline-3-carboxylic acid]
CN(C)c1ccc(Cl)c(OC[C@H]2CCCN2c2cc3c(cc2Cl)c(=O)c(C(=O)O)cn3-c2ccnc(N)c2)n1 [Example 655, (R)-1-(2-aminopyridin-4-yl)-6-chloro-7-(2-(((3-chloro-6-(dimethylamino)pyridin-2-yl)oxy)methyl)pyrrolidin-1-yl)-4-oxo-1,4-dihydroquinoline-3-carboxylic acid]
